Data published in ChEMBL document CHEMBL1126081, “Active conformation of a tumor promoter, teleocidin. A molecular dynamics study” (1992).

What follows are molecules tested on HL-60 (assay: Dose inducing HL-60 cell adhesion related to skin tumor promotion.).
Format: functional, Homo sapiens

SMILES | ED50 [M l-1]
CN1CC(=O)N[C@H](CO)Cc2c[nH]c3cccc1c23 (racemic) | 3.9e-05
CN1c2cccc3[nH]cc(c23)C[C@@H](CO)NC(=O)[C@@H]1C(C)(C)C (racemic) | 1.1e-07
C[C@H]1C(=O)N[C@H](CO)Cc2c[nH]c3cccc(c23)N1C (racemic) | 3.7e-06
